Measured values taken from patent publication US9555115B2, “Pharmaceutical composition for oral administration with improved dissolution and/or absorption” (Taiho Pharmaceutical Co., Ltd., priority 2012, dated 2017).

Experiment: Compatibility test: related substances by HPLC after storage of mixed powders
Assay type: physicochemical
Text: 4-((1-methylpyrrol-2-yl)-carbonyl)-N-(4-(4-morpholin-1-yl-carbonylpiperidin-1-yl)-phenyl)-1-piperazinecarboxamide (compound 1) monohydrate and organic acids were respectively weighed in an amount of 0.5 g. Compound 1 monohydrate was mixed with each organic acid in a mortar to produce individual mixed powders. Subsequently, compound 1 monohydrate alone was weighed in an amount of 0.5 g to produce a compound 1 monohydrate powder according to the same method as in the production of the organic acid mixed powders.
Each organic acid mixed powder and each compound 1 monohydrate powder were weighed in amounts of 0.04 g and 0.02 g, respectively, in sealed and open glass bottles. These bottles were allowed to stand at 60° C. and a relative humidity of 60% for two weeks, and then the production of a compound 1 monohydrate related substance was examined by HPLC to evaluate stability. In the evaluation, a high-speed liquid chromatograph (Shimadzu Corporation) was used.
Detector: Ultraviolet spectrophotometer (measurement wavelength: 260 nm)
Column: Phenylated silica gel for liquid chromatography (3.5 μm) (XBridge Phenyl, Japan Waters, Inc.) was placed in a stainless pipe with an inner diameter of 4.6 mm and a length of 10 cm.
Column temperature: Constant temperature of around 40° C.
Mobile phase A: Phosphate buffer solution (pH 7)
Mobile phase B: Acetonitrile
Transfer of mobile phase: The concentration gradient is regulated by changing the mixing ratio of mobile phases A and B as shown in Table 1.

Cn1cccc1C(=O)N1CCN(C(=O)Nc2ccc(N3CCC(C(=O)N4CCOCC4)CC3)cc2)CC1.O [Compound 1 monohydrate, 4-((1-methylpyrrol-2-yl)-carbonyl)-N-(4-(4-morpholin-1-yl-carbonylpiperidin-1-yl)-phenyl)-1-piperazinecarboxamide]
Initial value Related Substances (initial value, before storage): 0.46 mass %
Open Related Substances (open glass bottle, 60° C., relative humidity 60%, two weeks): 0.47 mass %
Sealed Related Substances (sealed glass bottle, 60° C., relative humidity 60%, two weeks): 0.44 mass %
